Experimental data as given in article PMC2576352, “The V1-V3 region of a brain-derived HIV-1 envelope glycoprotein determines macrophage tropism, low CD4 dependence, increased fusogenicity and altered sensitivity to entry inhibitors” (Retrovirology, 2008).
Peptide text beside a SMILES is read from it.

Columns and labels:
Format in all cases: cell-based, HIV-1
[1] = tested on: BS chimeric Env (brain gp120-spleen gp41) pseudotype; conditions: HOS-CD4-CCR5 cells, inhibitor + virus 5–6 h at 37°C, luciferase at 2–3 days, non-linear regression, 95% confidence limits in parentheses
Description: (§1) To produce Env-pseudotyped, luciferase-reporter viruses, 293T cells were co-transfected using calcium phosphate precipitation (ProFection Mammalian Transfection System, Promega, Madison, WI) with each Env expression vector and with the Env-deficient, pNL4-3-luc^+env^- provirus, developed by N. Landau by introducing a frameshift mutation in the env gene of pNL4-3-luc^+ [87]. Culture supernatants containing the pseudotyped particles were collected 48–72 hours after transfection, clarified by centrifugation, aliquoted and stored at -80°C until use. Pseudotype particles lacking envelope glycoproteins, which are generated by co-transfecting the luciferase HIV-1 pro-viral backbone with an empty expression vector, are used as negative control for all pseudotype infections. Pseudotype stocks were quantitated using a p24^gag antigen capture ELISA (SAIC-National Cancer Institute) and normalized amounts of stocks were used to infect target cells for 5–6 hours at 37°C. At 2–3 days post-infection, the cells were washed with PBS and lysed, and the amount of entry mediated by each Env was measured by detecting luciferase activity (Luciferase Assay System, Promega) in a microplate luminometer (GloMax, Promega), following manufacturer's instructions. Results are obtained as relative light units (RLU) per second. At least three independent experiments were performed for each analysis described below, with 2–8 replicates within each experiment.
(§2) To test for sensitivity to fusion inhibitors, BMS-378806 and HNG-105, the medium from HOS-CD4-CCR5 cells plated in 96-well plates 24 hours before infection, was removed and replaced by fresh medium containing 2× the final concentration of the corresponding inhibitor, and immediately the same volume of viral stocks was added. After 5–6 hours at 37°C, inocula and inhibitors were removed and the cells were incubated for 2–3 days before evaluating the amount of infection.
(§3) Inhibition curves obtained by plotting the relative infection (expressed as a percent of untreated) versus the concentration of the inhibitor were analyzed by non-linear regression with a sigmoidal dose-response model (variable slopes) using GraphPad Prism software, version 4.02 (GraphPad Software, San Diego, CA); this analysis uses a four parameter logistic equation, Y = Bottom + (Top-Bottom)/( 1+10^((log10IC50−X)⋅Slope) ) where Y is the response, Bottom is 0 and Top is 100, X is the logarithm of the concentration, and Slope is the slope of the curve. 50% inhibitory concentrations (IC50) and 95% confidence intervals were estimated from the non-linear regression analysis. Fusogenicity data were analyzed by non-linear regression with a one-phase exponential model (using GraphPad Prism) that uses the equation Y=Ymax(1-e^(-kX)), where Ymax is the maximum response and k is the observed rate. CD4 dependence data were analyzed with SPSS, version 16, using the non-parametric Mann-Whitney test.

[2] = tested on: Bv1v2 chimeric Env pseudotype; conditions: HOS-CD4-CCR5 cells, inhibitor + virus 5–6 h at 37°C, luciferase at 2–3 days, non-linear regression, 95% confidence limits in parentheses
Description: as §1, §2, §3

DS17 Env pseudotype = conditions: HOS-CD4-CCR5 cells, inhibitor + virus 5–6 h at 37°C, luciferase at 2–3 days, non-linear regression, 95% confidence limits in parentheses
Description: as §1, §2, §3

[3] = tested on: Spl (spleen-derived) Env pseudotype; conditions: HOS-CD4-CCR5 cells, inhibitor + virus 5–6 h at 37°C, luciferase at 2–3 days, non-linear regression, 95% confidence limits in parentheses
Description: as §1, §2, §3

BaL Env pseudotype = conditions: HOS-CD4-CCR5 cells, inhibitor + virus 5–6 h at 37°C, luciferase at 2–3 days, non-linear regression, 95% confidence limits in parentheses
Description: as §1, §2, §3

[4] = tested on: Bv1v3 chimeric Env pseudotype; conditions: HOS-CD4-CCR5 cells, inhibitor + virus 5–6 h at 37°C, luciferase at 2–3 days, non-linear regression, 95% confidence limits in parentheses
Description: as §1, §2, §3

[5] = tested on: Br (brain-derived) Env pseudotype; conditions: HOS-CD4-CCR5 cells, inhibitor + virus 5–6 h at 37°C, luciferase at 2–3 days, non-linear regression, 95% confidence limits in parentheses
Description: as §1, §2, §3

[6] = tested on: DS17(N283T) mutant Env pseudotype; conditions: HOS-CD4-CCR5 cells, inhibitor + virus 5–6 h at 37°C, luciferase at 2–3 days, non-linear regression, 95% confidence limits in parentheses
Description: as §1, §2, §3

[7] = tested on: SB chimeric Env (spleen gp120-brain gp41) pseudotype; conditions: HOS-CD4-CCR5 cells, inhibitor + virus 5–6 h at 37°C, luciferase at 2–3 days, non-linear regression, 95% confidence limits in parentheses
Description: as §1, §2, §3

[8] = tested on: Br(N283T) mutant Env pseudotype; conditions: HOS-CD4-CCR5 cells, inhibitor + virus 5–6 h at 37°C, luciferase at 2–3 days, non-linear regression, 95% confidence limits in parentheses
Description: as §1, §2, §3

[9] = tested on: pseudotypes containing wild-type, chimeric and mutant Env; test: Inhibition of pseudotype infection by entry/fusion inhibitors, Env panel; conditions: all pseudotypes; data not shown
Description: as §1, with “At least three independent experiments were performed for each analysis described below, with 2–8 replicates within each experiment.” left out
as §3, with “50% inhibitory concentrations (IC50) and 95% confidence intervals were estimated from the non-linear regression analysis.” left out, “CD4 dependence data were analyzed with SPSS, version 16, using the non-parametric Mann-Whitney test.” left out

Compound	IC50 [1]	IC50 [2]	IC50 (DS17 Env pseudotype)	IC50 [3]	IC50 (BaL Env pseudotype)	IC50 [4]	IC50 [5]	IC50 [6]	IC50 [7]	IC50 [8]	inhibition of pseudotype infection [9]
CC[C@H](C)[C@H](NC(=O)[C@H](CCC(N)=O)NC(=O)[C@H](C)NC(=O)[C@H](CCC(N)=O)NC(=O)[C@H](CCC(=O)O)NC(=O)[C@H](CC(C)C)NC(=O)[C@H](CC(C)C)NC(=O)[C@H](C)NC(=O)[C@@H](NC(=O)[C@@H](NC(=O)[C@H](CCCCN)NC(=O)[C@H](CCC(N)=O)NC(=O)[C@H](CCC(=O)O)NC(=O)[C@H](Cc1c[nH]c2ccccc12)NC(=O)[C@H](CCC(=O)O)NC(=O)[C@H](CCC(N)=O)NC(=O)[C@@H](N)Cc1c[nH]c2ccccc12)[C@@H](C)CC)[C@@H](C)O)C(=O)N[C@@H](CCC(N)=O)C(=O)N[C@@H](CCC(N)=O)C(=O)N[C@@H](CCC(=O)O)C(=O)N[C@@H](CCSC)C(=O)N[C@@H](CC(N)=O)C(=O)N[C@@H](CCC(=O)O)C(=O)N[C@@H](CCC(N)=O)C(=O)N[C@@H](CCC(=O)O)C(=O)N[C@@H](CC(C)C)C(=O)N[C@@H](CCC(N)=O)C(=O)N[C@@H](CCCCN)C(=O)N[C@@H](CC(C)C)C(=O)N[C@@H](CC(=O)O)C(=O)N[C@H](C(=O)N[C@@H](Cc1c[nH]c2ccccc12)C(=O)N[C@@H](C)C(=O)N[C@@H](CO)C(=O)N[C@@H](CC(C)C)C(=O)N[C@@H](Cc1c[nH]c2ccccc12)C(=O)N[C@@H](CCC(=O)O)C(=O)N[C@@H](Cc1c[nH]c2ccccc12)C(=O)N[C@@H](Cc1ccccc1)C(=O)O)[C@@H](C)O [T-1249-BR] (H-WQEWEQKITALLEQAQIQQEMNEQELQKLDTWASLWEWF-OH)	155 nM	155 nM	92 nM	27 nM	124 nM	245 nM	195 nM	104 nM	41 nM	221 nM	–
YTNLIYNLIEKSQNQQEMNEQELLKLDTWASLWNWF [T-20-BR, T-20-derived peptide with amino acid changes present in HR2 region of brain-derived env clones]	–	–	–	–	–	–	–	–	–	–	very similar inhibition
CC[C@H](C)[C@H](NC(=O)[C@H](CCC(N)=O)NC(=O)[C@H](C)NC(=O)[C@H](CCC(N)=O)NC(=O)[C@H](CCC(=O)O)NC(=O)[C@H](CC(C)C)NC(=O)[C@H](CC(C)C)NC(=O)[C@H](C)NC(=O)[C@@H](NC(=O)[C@@H](NC(=O)[C@H](CCCCN)NC(=O)[C@H](CCC(N)=O)NC(=O)[C@H](CCC(=O)O)NC(=O)[C@H](Cc1c[nH]c2ccccc12)NC(=O)[C@H](CCC(=O)O)NC(=O)[C@H](CCC(N)=O)NC(=O)[C@@H](N)Cc1c[nH]c2ccccc12)[C@@H](C)CC)[C@@H](C)O)C(=O)N[C@@H](CCC(N)=O)C(=O)N[C@@H](CCC(N)=O)C(=O)N[C@@H](CCC(=O)O)C(=O)N[C@@H](CCCCN)C(=O)N[C@@H](CC(N)=O)C(=O)N[C@@H](CCC(=O)O)C(=O)N[C@@H](Cc1ccc(O)cc1)C(=O)N[C@@H](CCC(=O)O)C(=O)N[C@@H](CC(C)C)C(=O)N[C@@H](CCC(N)=O)C(=O)N[C@@H](CCCCN)C(=O)N[C@@H](CC(C)C)C(=O)N[C@@H](CC(=O)O)C(=O)N[C@@H](CCCCN)C(=O)N[C@@H](Cc1c[nH]c2ccccc12)C(=O)N[C@@H](C)C(=O)N[C@@H](CO)C(=O)N[C@@H](CC(C)C)C(=O)N[C@@H](Cc1c[nH]c2ccccc12)C(=O)N[C@@H](CCC(=O)O)C(=O)N[C@@H](Cc1c[nH]c2ccccc12)C(=O)N[C@@H](Cc1ccccc1)C(=O)O [T-1249]	140 nM	224 nM	210 nM	37 nM	102 nM	227 nM	173 nM	155 nM	83 nM	166 nM	–
